In US10428045B2, “Benzazepine compounds, conjugates, and uses thereof” (Silverback Therapeutics, Inc., priority 2017, dated 2019):
Counter-ions that a name gives are not always drawn.

These compounds were tested on Human peripheral blood mononuclear cells (PBMC) (assay: PBMC screening assay, TNF-α in supernatant). Settings: TNF-α in supernatant of human PBMC, 24 hours, ELISA or HTRF.
Assay type: cell-based
Experimental: Human peripheral blood mononuclear cells (PBMC) were obtained from BenTek, frozen at 25×10^6 cell/mL in 10% DMSO (Sigma) prepared in fetal bovine serum (Gibco) and stored in liquid nitrogen. For culture PBMC were thawed quickly in a 37° C. water bath and diluted into pre-warmed RPMI 1640 (Lonza) supplemented with 10% fetal bovine serum, 2 mM glutamine, 50 μg/mL penicillin, 50 U/mL streptomycin (all from Gibco) and centrifuged for 5 minutes at 500×g. PBMC were suspended into the growth media described above and cultured at a concentration of 1×10^6 cells per mL at 37° C. in a 5% CO2 incubator.
PBMC were thawed, suspended at a concentration of 1×10^6 cell/mL in growth media and 200 μL was aliquoted into each well of a 96-well plate for a total of 0.2×10^6 cells per well. PBMC were incubated for 16-18 hours at 37° C. in a 5% CO2 humidified incubator. The following day PBMC plates were centrifuged at 500×g for 5 minutes and the growth media was removed. 150 μL of twelve concentrations ranging from 1000 to 0.000238 nM of small molecules prepared in growth media were added to PBMC in duplicate and incubated for 24 hours at 37° C. in a 5% CO2 incubator. Prior to supernatant harvest, cells were spun at 500×g for 5 minutes to remove cell debris. TNF-α activity was assessed in the supernatant by ELISA (eBioscience) or HTRF (CisBio) per the manufacturer's instructions. Optical density at 450 nm and 570 nm (ELISA) or luminescence (HTRF) was analyzed using an Envision (Perkin Elmer) plate reader, as shown in Table 5.

Structure (SMILES) | EC50 [nM]
CCCN(CCC)C(=O)C1=Cc2ccc(C(=O)Nc3ccc4c(c3)NCCC4)cc2N=C(N)C1 [Compound 1.1, 2-amino-N^4,N^4-dipropyl-N^8-(1,2,3,4-tetrahydroquinolin-7-yl)-3H-benzo[b]azepine-4,8-dicarboxamide] | < 500
CCCN(CCC)C(=O)C1=Cc2ccc(C(=O)Nc3cccc(C(C)=O)c3)cc2N=C(N)C1 [Compound 1.2, N^8-(3-acetylphenyl)-2-amino-N^4,N^4-dipropyl-3H-benzo[b]azepine-4,8-dicarboxamide] | < 500
CCCN(CCC)C(=O)C1=Cc2ccc(C(=O)NCc3cccnc3)cc2N=C(N)C1 [Compound 1.3, 2-amino-N^4,N^4-dipropyl-N^8-(pyridin-3-ylmethyl)-3H-benzo[b]azepine-4,8-dicarboxamide HCl salt] | < 500
CCCN(CCC)C(=O)C1=Cc2ccc(C(=O)Nc3ccc4c(c3)C(=O)CCC4)cc2N=C(N)C1 [Compound 1.4, 2-amino-N^8-(8-oxo-5,6,7,8-tetrahydronaphthalen-2-yl)-N^4,N^4-dipropyl-3H-benzo[b]azepine-4,8-dicarboxamide trifluoroacetate salt] | < 500
CCCN(CCC)C(=O)C1=Cc2ccc(C(=O)Nc3ccc4c(c3)CCCC4=O)cc2N=C(N)C1 [Compound 1.5, 2-amino-N^8-(5-oxo-5,6,7,8-tetrahydronaphthalen-2-yl)-N^4,N^4-dipropyl-3H-benzo[b]azepine-4,8-dicarboxamide trifluoroacetate salt] | < 500
CCCN(CCC)C(=O)C1=Cc2ccc(C(=O)Nc3ccc4c(c3)C(O)CCC4)cc2N=C(N)C1 (centres unmarked) [Compound 1.7, 2-amino-N^8-(8-hydroxy-5,6,7,8-tetrahydronaphthalen-2-yl)-N4,N4-dipropyl-3H-benzo[b]azepine-4,8-dicarboxamide trifluoroacetate salt] | < 500
CCCN(CCC)C(=O)C1=Cc2ccc(C(=O)Nc3ccc4c(c3)CCCN4)cc2N=C(N)C1 [Compound 1.12, 2-amino-N^4,N^4-dipropyl-N^8-(1,2,3,4-tetrahydroquinolin-6-yl)-3H-benzo[b]azepine-4,8-dicarboxamide trifluoroacetate salt] | < 500
CCCN(CCC)C(=O)C1=Cc2ccc(C(=O)Nc3ccc4c(c3)CCNC4)cc2N=C(N)C1 [Compound 1.13, 2-amino-N^4,N^4-dipropyl-N^8-(1,2,3,4-tetrahydroisoquinolin-6-yl)-3H-benzo[b]azepine-4,8-dicarboxamide trifluoroacetate salt] | < 500
CCCN(CCC)C(=O)C1=Cc2ccc(C(=O)Nc3ccc4c(c3)CNCC4)cc2N=C(N)C1 [Compound 1.14, 2-amino-N^4,N^4-dipropyl-N^8-(1,2,3,4-tetrahydro-isoquinolin-7-yl)-3H-benzo[b]azepine-4,8-dicarboxamide trifluoroacetate salt] | < 500
CCCN(CCC)C(=O)C1=Cc2ccc(C(=O)N[C@@H](C)c3ccccc3)cc2N=C(N)C1 [Compound 1.21, (S)-2-amino-N^8-(1-phenylethyl)-N^4,N^4-dipropyl-3H-benzo[b]azepine-4,8-dicarboxamide trifluoroacetate salt] | < 500
CCCN(CCC)C(=O)C1=Cc2ccc(C(=O)N[C@H](C)c3ccccc3)cc2N=C(N)C1 [Compound 1.22, (R)-2-amino-N^8-(1-phenylethyl)-N^4,N^4-dipropyl-3H-benzo[b]azepine-4,8-dicarboxamide trifluoroacetate salt] | < 500
CCCN(CCC)C(=O)C1=Cc2ccc(C(=O)NC3CCc4ccccc43)cc2N=C(N)C1 (centres unmarked) [Compound 1.23, 2-amino-N^8-(2,3-dihydro-1H-inden-1-yl)-N^4,N^4-dipropyl-3H-benzo[b]azepine-4,8-dicarboxamide trifluoroacetate salt] | < 500
CCCN(CCC)C(=O)C1=Cc2ccc(C(=O)N3CCc4ccccc4C3)cc2N=C(N)C1 [Compound 1.24, 2-amino-N,N-dipropyl-8-(1,2,3,4-tetrahydroisoquinoline-2-carbonyl)-3H-benzo[b]azepine-4-carboxamide trifluoroacetate salt] | < 500
CCCN(CCC)C(=O)C1=Cc2ccc(C(=O)Nc3ccc(C(C)=O)cc3)cc2N=C(N)C1 [Compound 1.25, N^8-(4-acetylphenyl)-2-amino-N^4,N^4-dipropyl-3H-benzo[b]azepine-4,8-dicarboxamide trifluoroacetate salt] | < 500
CCCN(CCC)C(=O)C1=Cc2ccc(C(=O)NCCNC(=O)OCc3ccccc3)cc2N=C(N)C1 [Compound 1.26, benzyl (2-(2-amino-4-(dipropylcarbamoyl)-3H-benzo[b]azepine-8-carboxamido)ethyl)carbamate trifluoroacetate salt] | < 500
CCCN(CCC)C(=O)C1=Cc2ccc(C(=O)Nc3cccc(C(=O)NCCNC(=O)OCc4ccccc4)c3)cc2N=C(N)C1 [Compound 1.27, benzyl (2-(3-(2-amino-4-(dipropylcarbamoyl)-3H-benzo[b]azepine-8-carboxamido)benzamido)ethyl)carbamate] | < 500
CCCN(CCC)C(=O)C1=Cc2ccc(C(=O)N[C@H]3C[C@@H]3c3ccccc3)cc2N=C(N)C1 [Compound 1.28, 2-amino-N^8-((1S,2R)-2-phenylcyclopropyl)-N^4,N^4-dipropyl-3H-benzo[b]azepine-4,8-dicarboxamide trifluoroacetate salt] | < 500
CCCN(CCC)C(=O)C1=Cc2ccc(C(=O)Nc3ccc4c(c3)CCN(C(=O)OCc3ccccc3)C4)cc2N=C(N)C1 [Compound 1.29, benzyl 6-(2-amino-4-(dipropylcarbamoyl)-3H-benzo[b]azepine-8-carboxamido)-3,4-dihydroisoquinoline-2(1H)-carboxylate] | < 500
CCCN(CCC)C(=O)C1=Cc2ccc(C(=O)Nc3cccc(CNC(=O)CCc4ccccc4)c3)cc2N=C(N)C1 [Compound 1.31, 2-amino-N^8-(3-((3-phenylpropanamido)methyl)phenyl)-N^4,N^4-dipropyl-3H-benzo[b]azepine-4,8-dicarboxamide bis TFA salt] | < 500
CCCN(CCC)C(=O)C1=Cc2ccc(C(=O)Nc3cncc(CNC(=O)NCc4ccccc4)c3)cc2N=C(N)C1 [Compound 1.32, 2-amino-N^8-(5-((3-benzylureido)methyl)pyridin-3-yl)-N^4,N^4-dipropyl-3H-benzo[b]azepine-4,8-dicarboxamide bis TFA salt] | < 500
CCCN(CCC)C(=O)C1=Cc2ccc(C(=O)Nc3cncc(CNC(=O)C4CCc5ccccc5N4)c3)cc2N=C(N)C1 (centres unmarked) [Compound 1.33, 2-amino-N^4,N^4-dipropyl-N^8-(5-((1,2,3,4-tetrahydroquinoline-2-carboxamido)methyl)pyridin-yl)-3H-benzo[b]azepine-4,8-dicarboxamide] | < 500
CCCN(CCC)C(=O)C1=Cc2ccc(C(=O)Nc3cncc(CNC(=O)C4Cc5ccccc5CN4)c3)cc2N=C(N)C1 (centres unmarked) [Compound 1.34, 2-amino-N^4,N^4-dipropyl-N^8-(5-((1,2,3,4-tetrahyroisoquinoline-3-carboxamido)-methyl)pyridin-3-yl)-3H-benzo[b]azepine-4,8-dicarboxamide] | < 500
CCCN(CCC)C(=O)C1=Cc2ccc(C(=O)Nc3cncc(CNC(=O)[C@@H](N)Cc4ccccc4)c3)cc2N=C(N)C1 [Compound 1.35, (S)-2-amino-N^8-(5-((2-amino-3-phenylpropanamido)methyl)pyridin-3-yl)-N^4,N^4-dipropyl-3H-benzo[b]azepine-4,8-dicarboxamide] | < 500
